Source: US12636299B2, “Terpenoid derivatives, pharmaceutical preparations containing these derivatives and their use in neuroprotection” (UNIVERZITA PALACKEHO V OLOMOUCI, priority 2020, dated 2026)

Experiments:
[1] = system: SH-SY5Y human neuroblastoma cell line; assay: Cytotoxicity, Calcein AM viability assay on neuron-like SH-SY5Y cells; type: cell-based; settings: 24 h
Protocol: The SH-SY5Y human neuroblastoma cell line obtained from ECACC (The European Collection of Authenticated Cell Cultures) was cultivated in Dulbecco's modified Eagle's Medium and Ham's F12 Nutrient Mixture (DMEM:F-12, 1:1), supplemented with 10% fetal bovine serum (FBS) and 1% penicillin and streptomycin at 37° C. in a humidified atmosphere 5% CO2, 95% humidity in passage limit up to ECACC+20. The assay was performed in 96-well microplate with 7000 SH-SY5Y cells per well. After 48 h, old DMEM/F12 media was removed by fresh media containing tested compounds at 0.1, 1 and 10 μM concentrations for 24 h. Glial cell line A-172 purchased from ATCC and grown in same conditions as SH-SY5Y cell line. A-172 cells were seeded in density 2000 cells per well and growing medium was replaced by treatment medium containing tested compounds in 0.1, 1 and 10 μM concentration; or in higher concentrations for R-LA or NAC positive controls for 48 hours. All tested compounds dissolved in DMSO were added into the medium. The maximum concentration of DMSO in media was kept below 0.1% (v/v). The cell viability was measured by Calcein AM (1 mg/ml ThermoFisher) viability assay. Solution of Calcein AM in PBS (0.75 μM) was pipetted to cells and incubated for 50 min. After that the fluorescence was measured at 488/517 nm (excitation/emission) using microplate reader Infinite M200 (TECAN). Calcein AM assay is based on the dye-intracellular-esterase cleavage of non-fluorescent dye (Calcein AM) by living cells to fluorescent dye (Calcein), while dying cells lose such ability. The values in Table 2 show the % of viability compared to control for all tested compounds. The results from DMSO control (medium with DMSO, <0.1% (v/v)) was postulated as 100% viability (see the first line of Table 2).

[2] = system: human neuroblastoma cell line SH-SY5Y; assay: Viability of differentiated SH-SY5Y in salsolinol-induced model of PD (Calcein AM); type: cell-based; settings: for Neuroprotective effect (% of control): difference between 800 μM SAL and co-treatment group means
Protocol: Similarly, as in previous “Safety test”, the SH-SY5Y cells were seeded at density 7000 cells/well. After 48 h differentiation, old 1% DMEM/F12 media was replaced by fresh media containing 800 μM salsolinol (SAL) and tested compounds in 0.1, 1 and 10 μM concentrations. N-acetylcystein were chosen as positive control. After 24 hours, the cell viability was measured by Calcein AM viability assay. The values in Table 2 show % of viability of all tested compounds relative to control. The control (medium with DMSO, <0.1% (v/v)) was postulated as 100% viability (see the first line of the table), while the SAL exposure lead to decrease of viability to 65.4±0.97%.

[3] = system: caspase-3,7 activity; assay: Caspase-3,7 activity in salsolinol-induced model of PD on SH-SY5Y (Ac-DEVD-AMC); type: cell-based, human; settings: for Caspase-3,7 activity (% of 800 μM SAL control): percentages of control (800 μM SAL = 100), 24 hour co-treatment; for reduction of caspase-3,7 activity, in words: 800 μM SAL, compounds 3 and 4 at 10 μM compared with NAC
Protocol: Similarly, as shown in previous assay, cells grew on 96 multiwell plates at density 20000 cells per well underwent differentiation and treatment procedure for salsolinol model. After 24 hour co-treatment with salsolinol, caspase-3,7 (casp-3,7) activity as marker of apoptosis was quantified by its substrate Ac-DEVD-AMC according to Carrasco et al. (2003, BioTechniques, 34, 1064-1067). In this model, overall casp-3,7 activity induced by 800 μM SAL was consider as 100% and thus the reduction in casp-3,7 was observed after treatment with the protective terpenoid derivatives. As shown in Table 4 and FIG. 2, 800 μM SAL induced 2.9-fold increase.

[4] = system: human neuron-like SH-SY5Y cells; assay: 3NPA-induced model of Huntington's disease, neuron-like SH-SY5Y cells; type: cell-based; settings: difference to 20 mM 3NPA, 48 h
Protocol: (§1) Before application of toxin 3-nitropropionic acid (3NPA) for mimicking Huntington's disease, the 3NPA was dissolved in water and neutralized by sodium hydroxide. SH-SY5Y cells were seeded in the same density and differentiated by the procedure shown above. Astrocyte cells A-172 were also seeded as described in previous section. Both cell lines were co-treated by 3NPA (20 mM for SH-SY5Y cells, […]) and tested compounds at 0.1, 1 and 10 μM concentration for 48 h.

[5] = system: astrocyte A-172 cells; assay: 3NPA-induced model of Huntington's disease, astrocyte A-172 cells; type: cell-based, human; settings: for Astro-protective effect (% of control): difference to 10 mM 3NPA, 48 h
Protocol: as §1

[6] = system: superoxide radical formation; assay: Oxidative stress (superoxide radical formation, DHE) in 3NPA-induced model on SH-SY5Y; type: cell-based, human; settings: for Superoxide radical formation (oxidative stress) %: 20 mM 3NPA = 100%, 24 hours
Protocol: Similarly, to previous assay, cells grown on 96-multiwell plates at density 20000 cells per well underwent differentiation and treatment procedure with 3-nitropropionic acid (3NPA) in this model. After 24 hours of co-treatment with 20 mM 3NPA, superoxide radical's formation as a marker of oxidative stress was quantified by dihydroethidium according to Kim et al. (2017, J. Med. Food, 20, 140-151). Briefly, neuron-like SH-SY5Y cells were centrifuged at 500 g for 5 min and 30 s, then media were replaced by 10 μM DHE PBS solution and kept at room temperature for 30 min. After that, DHE was read at 500 nm/580 nm (excitation/emission) by Infinite M200 Pro (Tecan) microplate reader. DHE is cell permeable dye which is selective for superoxide radical detection. Overall oxidative stress achieved by 20 mM 3NPA was consider as 100% and thus the reduction in superoxide radical's formation (OS reducing effect) was determined. As shown in Table 6 and FIG. 2, 20 mM 3NPA induced 2.7-fold increase in superoxide radical's formation.

[7] = system: glial A-172 cells; assay: Cytotoxicity, Calcein AM viability assay on glial A-172 cells; type: cell-based, human; settings: 48 hours

## C=C(C(=O)OCc1ccco1)C1CCC2(COC(C)=O)CCC3(C)C(CCC4C5(C)CCC(OC(C)=O)C(C)(C)C5CCC43C)C12 (stereo not drawn) [Compound 5, Furan-2-yl-methyl 3β,28-diacetyloxylup-20(29)-en-30-oate]
[1]; 0.1 μM
  viability, percentage of DMSO control: 91.9%
[1]; 1 μM
  viability, percentage of DMSO control: 106.4%
[1]; 10 μM
  viability, percentage of DMSO control: 129.5%
[2]; 0.1 μM, 24 hours
  Neuroprotective effect (% of control): N/A (N/A = no protection)
[2]; 1 μM, 24 hours
  Neuroprotective effect (% of control): N/A (N/A = no protection)
[2]; 10 μM, 24 hours
  Neuroprotective effect (% of control): 18.96 % of control
[2]; 800 μM salsolinol, comparison with NAC
  effect on SH-SY5Y viability in salsolinol model, in words: better effect than 1000 μM NAC
[3]; 1 μM
  Caspase-3,7 activity (% of 800 μM SAL control): 86.8%
[3]; 10 μM
  Caspase-3,7 activity (% of 800 μM SAL control): 76.5%
[3]
  reduction of caspase-3,7 activity, in words: positive effect on casp-3,7 activity
[3]; caspase-3,7 activity, salsolinol model
  efficacy relative to positive controls (by used concentration): 10 fold
[4]; 0.1 μM
  Neuro-protective effect (% of control): N/A (N/A = no protection)
[4]; 1 μM
  Neuro-protective effect (% of control): N/A (N/A = no protection)
[4]; 10 μM
  Neuro-protective effect (% of control): 20.63 % of control
[5]; A-172, 0.1 μM
  Astro-protective effect (% of control): N/A (N/A = no protection)
[5]; A-172, 1 μM
  Astro-protective effect (% of control): 12.87 % of control
[5]; A-172, 10 μM
  Astro-protective effect (% of control): 14.05 % of control
[5]; A-172 cells, comparison with R-LA
  protective effect on astrocytes in 3NPA model, in words: positive effect comparable to R-LA control
[6]; 0.1 μM
  Superoxide radical formation (oxidative stress) %: 94.1%
[6]; 1 μM
  Superoxide radical formation (oxidative stress) %: 87.3%
[6]; 10 μM
  Superoxide radical formation (oxidative stress) %: 87.1%
[7]; 0.1 μM
  viability, percentage of DMSO control: 96.6%
[7]; 1 μM
  viability, percentage of DMSO control: 100.0%
[7]; 10 μM
  viability, percentage of DMSO control: 90.8%

## C=C(C(=O)OCc1cccs1)C1CCC2(COC(C)=O)CCC3(C)C(CCC4C5(C)CCC(OC(C)=O)C(C)(C)C5CCC43C)C12 (stereo not drawn) [Compound 6, Thiophen-2-ylmethyl 3β,28-diacetyloxy-lup-20(29)-en-30-oate]
[1]; 0.1 μM
  viability, percentage of DMSO control: 92.1%
[1]; 1 μM
  viability, percentage of DMSO control: 96.2%
[1]; 10 μM
  viability, percentage of DMSO control: 113.5%
[2]; 0.1 μM, 24 hours
  Neuroprotective effect (% of control): N/A (N/A = no protection)
[2]; 1 μM, 24 hours
  Neuroprotective effect (% of control): N/A (N/A = no protection)
[2]; 10 μM, 24 hours
  Neuroprotective effect (% of control): 7.38 % of control
[3]; 1 μM
  Caspase-3,7 activity (% of 800 μM SAL control): 93.2%
[3]; 10 μM
  Caspase-3,7 activity (% of 800 μM SAL control): 88.3%
[3]
  reduction of caspase-3,7 activity, in words: positive effect on casp-3,7 activity
[4]; 0.1 μM
  Neuro-protective effect (% of control): N/A (N/A = no protection)
[4]; 1 μM
  Neuro-protective effect (% of control): N/A (N/A = no protection)
[4]; 10 μM
  Neuro-protective effect (% of control): 20.53 % of control
[5]; A-172, 0.1 μM
  Astro-protective effect (% of control): 4.27 % of control
[5]; A-172, 1 μM
  Astro-protective effect (% of control): 4.57 % of control
[5]; A-172, 10 μM
  Astro-protective effect (% of control): 7.45 % of control
[6]; 0.1 μM
  Superoxide radical formation (oxidative stress) %: 92.2%
[6]; 1 μM
  Superoxide radical formation (oxidative stress) %: 89.9%
[6]; 10 μM
  Superoxide radical formation (oxidative stress) %: 88.0%
[7]; 0.1 μM
  viability, percentage of DMSO control: 99.9%
[7]; 1 μM
  viability, percentage of DMSO control: 98.4%
[7]; 10 μM
  viability, percentage of DMSO control: 96.2%

## C[C@@H]1NCCc2cc(O)c(O)cc21 [SAL, salsolinol, reference compound]
[2]; 800 μM salsolinol alone, 24 hours
  viability relative to DMSO control after SAL exposure: 65.4±0.97%
[3]; 800 μM SAL versus DMSO control
  increase of caspase-3,7 activity: 2.9 fold

## O=C(O)CCCC[C@@H]1CCSS1 [R-LA, R-lipoic acid, reference compound]
[5]; A-172, column head 0.5 μM (positive controls)
  Astro-protective effect (% of control): N/A (N/A = no protection)
[5]; A-172, column head 5 μM (positive controls)
  Astro-protective effect (% of control): 13.27 % of control
[5]; A-172, column head 50 μM (positive controls)
  Astro-protective effect (% of control): 14.87 % of control

## O=C(O)CC[N+](=O)[O-] [Compound 3NPA, 3-nitropropionic acid, reference compound]
[6]; 20 mM 3NPA versus DMSO control
  increase in superoxide radical's formation: 2.7 fold
